The supplement of paper PMC10011410

Key:
U-2 OS [1] = test: AUC of culture confluence over time (live-cell imaging) (AUC (confluence % x time)); higher = more confluent culture (less growth inhibition)
Description: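 Live-cell Incucyte imaging of U-2 OS cells in F-12K medium. Compounds were tested mostly at 5, 10 and 20 uM, and cells were imaged every 4 h for up to 60 h. Value is the area under the curve of phase-contrast confluence over time.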

U-2 OS [2] = test: cell painting activity score (Mahalanobis distance from DMSO wells); higher = stronger morphological phenotype; conditions: 24 h
Description: (§1)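 Cell painting in U-2 OS cells (384-well, about 1,500 cells per well), compound exposure 24 h, usually six 2-fold concentrations from 20 to 0.625 uM (some compounds higher or lower). Relative cell count is the cell number per well relative to DMSO wells. Activity score is the Mahalanobis distance of the morphological profile from DMSO control wells. Mean of four technical replicate plates.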

U-2 OS [3] = test: relative cell count vs DMSO (cell painting) (fraction of DMSO control); higher = more cells remaining (less cytotoxic); conditions: 24 h
Description: as §1

Structure (SMILES) | AUC of culture confluence over time (U-2 OS [1]; 5 µM) | AUC of culture confluence over time (U-2 OS [1]; 10 µM) | AUC of culture confluence over time (U-2 OS [1]; 20 µM) | cell painting activity score (U-2 OS [2]; 0.625 µM) | cell painting activity score (U-2 OS [2]; 1.25 µM) | cell painting activity score (U-2 OS [2]; 2.5 µM) | cell painting activity score (U-2 OS [2]; 5 µM) | cell painting activity score (U-2 OS [2]; 10 µM) | cell painting activity score (U-2 OS [2]; 20 µM) | relative cell count (U-2 OS [3]; 0.625 µM) | relative cell count (U-2 OS [3]; 1.25 µM) | relative cell count (U-2 OS [3]; 2.5 µM) | relative cell count (U-2 OS [3]; 5 µM) | relative cell count (U-2 OS [3]; 10 µM) | relative cell count (U-2 OS [3]; 20 µM) | AUC of culture confluence over time (U-2 OS [1]; 40 µM) | AUC of culture confluence over time (U-2 OS [1]; 80 µM) | cell painting activity score (U-2 OS [2]; 40 µM) | cell painting activity score (U-2 OS [2]; 80 µM) | relative cell count (U-2 OS [3]; 40 µM) | relative cell count (U-2 OS [3]; 80 µM)
CNc1nc(-c2ccccc2)[n+](-c2ccccc2)s1 | 36 | 44.4 | 42.5 | 2.89 | 2.97 | 3.6 | 3.74 | 6.88 | 14.5 | 1 | 1.03 | 0.994 | 0.992 | 0.516 | 0.0974 |  |  |  |  |  | 
C/C(=C\c1csc(C)n1)[C@@H]1C[C@@H]2O[C@]2(C)CCC[C@H](C)[C@H](O)[C@@H](C)C(=O)C(C)(C)[C@@H](O)CC(=O)O1 | 21.8 | 21.4 | 21.2 | 21.1 | 20.7 | 22.7 | 22.5 | 23.6 | 23.9 | 0.22 | 0.223 | 0.284 | 0.468 | 0.553 | 0.521 |  |  |  |  |  | 
CN1C(=O)[C@@]23C[C@]4([C@]56C[C@@]78SS[C@@](CO)(C(=O)N7[C@H]5Nc5ccccc56)N(C)C8=O)c5ccccc5N[C@@H]4N2C(=O)[C@]1(CO)SS3 | 9.52 | 13.4 | 13.8 | 16.3 | 21.7 | 17.3 | 16.4 | 7.82 | 14 | 0.176 | 0.0258 | 0.0235 | 0.0282 | 0.0283 | 0.0118 |  |  |  |  |  | 
CCN(CC)Cc1ccc2cc(COC(=O)Nc3ccc(C(=O)NO)cc3)ccc2c1.Cl | 16.5 | 20 | 18.5 | 16.1 | 14.9 | 15 | 15.6 | 16 | 16.9 | 0.781 | 0.654 | 0.491 | 0.424 | 0.403 | 0.373 |  |  |  |  |  | 
O=C(O[C@@H]1O[C@@H]2COC(=O)c3cc(O)c(O)c(O)c3-c3c(cc(O)c(O)c3O)C(=O)O[C@H]([C@H]1O)[C@@H]2O)c1cc(O)c(O)c(O)c1 | 48.7 | 46.2 | 43.4 | 4.19 | 3.86 | 4.06 | 3.55 | 4.28 | 4.5 | 1.02 | 1.04 | 1.01 | 1 | 0.979 | 0.978 |  |  |  |  |  | 
Nc1nccc2c1ncn2[C@@H]1C=C(CO)[C@@H](O)[C@H]1O | 36.9 | 32.7 | 34.3 | 18.6 | 18.8 | 26.9 | 28 | 26.4 | 26.2 | 0.949 | 0.964 | 0.944 | 0.938 | 0.941 | 0.94 |  |  |  |  |  | 
C[C@@H]1O[C@@H](O[C@H]2[C@H](O[C@H]3CC[C@@]4(C)[C@@H](CC[C@]5(C)[C@@H]4CC=C4[C@@H]6CC(C)(C)CC[C@]6(C(=O)O)CC[C@]45C)[C@]3(C)CO)OC[C@H](O[C@@H]3O[C@H](CO)[C@@H](O)[C@H](O)[C@H]3O)[C@@H]2O)[C@H](O)[C@H](O)[C@H]1O | 14.5 | 16.5 | 13 | 4.55 | 9.15 | 31.1 | 31.3 | 33.6 | 35.9 | 0.916 | 0.143 | 0.0325 | 0.0427 | 0.0257 | 0.015 |  |  |  |  |  | 
CC1(C)CC[C@]2(C(=O)O[C@@H]3O[C@H](CO)[C@@H](O)[C@H](O)[C@H]3O)CC[C@]3(C)C(=CC[C@@H]4[C@@]5(C)CC[C@H](O[C@@H]6O[C@H](C(=O)O)[C@@H](O)[C@H](O)[C@H]6O[C@@H]6O[C@H](CO)[C@@H](O)[C@H](O)[C@H]6O)C(C)(C)[C@@H]5CC[C@]43C)[C@@H]2C1 | 54.4 | 51.1 | 57.6 | 4.68 | 4.76 | 5.42 | 5.24 | 6.27 | 9.37 | 0.971 | 0.973 | 0.949 | 0.938 | 0.915 | 0.964 |  |  |  |  |  | 
CC[C@H]1CN2CCc3cc(OC)c(OC)cc3[C@@H]2C[C@@H]1C[C@H]1NCCc2cc(OC)c(OC)cc21.Cl.Cl.O | 15.2 | 16 | 16.6 | 18.4 | 18.9 | 19.4 | 20.8 | 20.8 | 20.6 | 0.51 | 0.489 | 0.482 | 0.462 | 0.462 | 0.433 |  |  |  |  |  | 
COc1ccc2c(c[n+](C)c3c4cc5c(cc4ccc23)OCO5)c1OC | 46.8 | 41 | 11.4 | 5.1 | 3.72 | 14.6 | 14.5 | 13.8 | 16.2 | 0.994 | 1.03 | 1.01 | 0.982 | 0.695 | 0.0282 |  |  |  |  |  | 
ClC1=CC=C(C2=CSC(N/N=C3CCCC/3)=N2)C=C1 |  |  |  | 3.41 | 3.02 | 4.44 | 4.27 | 4.6 | 7.83 | 1.01 | 1.04 | 0.973 | 1 | 0.97 | 0.882 | 39.7 | 41.8 | 10 | 11 | 0.758 | 0.766
CN1C(=O)[C@]23CC4=CC=C[C@H](O)[C@H]4N2C(=O)[C@@]1(CO)SS3 | 7.79 | 7.52 | 8.46 | 17.6 | 31.2 | 35.5 | 29.6 | 26.9 | 36.5 | 0.197 | 0.0207 | 0.0068 | 0.0047 | 0.00462 | 0.00499 |  |  |  |  |  | 
COC(=O)[C@@]12OC[C@]34[C@H]([C@@H](O)[C@@H]1O)[C@@]1(C)CC(=O)C(O)=C(C)[C@@H]1C[C@H]3OC(=O)[C@H](OC(=O)CC(C)C)[C@@H]24 | 14.4 | 12.2 | 13.9 | 15.1 | 15.9 | 16.9 | 17.5 | 18.1 | 17.9 | 0.469 | 0.475 | 0.461 | 0.47 | 0.397 | 0.365 |  |  |  |  |  | 
C[C@@H]1O[C@@H](O[C@H]2[C@H](O[C@H]3CC[C@@]4(C)[C@@H](CC[C@]5(C)[C@@H]4CC=C4[C@@H]6CC(C)(C)CC[C@]6(C(=O)O[C@@H]6O[C@H](CO[C@@H]7O[C@H](CO)[C@@H](O[C@@H]8O[C@@H](C)[C@H](O)[C@@H](O)[C@H]8O)[C@H](O)[C@H]7O)[C@@H](O)[C@H](O)[C@H]6O)CC[C@]45C)[C@]3(C)CO)OC[C@H](O)[C@@H]2O)[C@H](O)[C@H](O)[C@H]1O | 45.1 | 48.4 | 45.2 | 3.46 | 5.62 | 3.28 | 3.16 | 3.23 | 2.9 | 0.985 | 0.966 | 0.955 | 1 | 1.01 | 1.04 |  |  |  |  |  | 
CC(C)(C)C(=O)OCOc1cccc2ccccc12 | 45.5 | 44.2 | 46.3 | 4.69 | 4.3 | 6.34 | 5.83 | 8.37 | 7.3 | 1.01 | 0.983 | 0.997 | 0.97 | 0.974 | 1.01 |  |  |  |  |  | 
Nc1nc(Cl)nc2c1ncn2[C@H]1C[C@H](O)[C@@H](CO)O1 | 30.2 | 34.5 | 33.3 | 12.6 | 13.3 | 13.6 | 14 | 14.8 | 15.2 | 0.638 | 0.588 | 0.583 | 0.555 | 0.55 | 0.539 |  |  |  |  |  | 
O=C(c1ccc(/C=C/c2n[nH]c3ccccc23)cc1)N1CCNCC1 | 28.9 | 32.6 | 26.8 | 9.05 | 12 | 17.9 | 19.2 | 18.8 | 18.8 | 1.02 | 0.914 | 0.649 | 0.572 | 0.532 | 0.526 |  |  |  |  |  | 
CCOC(=O)C1=C(C)NC(=S)N[C@@H]1c1cccc(O)c1 | 48.6 | 50.3 | 44.1 | 4.88 | 4.81 | 5.49 | 5.58 | 4.56 | 4.64 | 0.936 | 0.94 | 1.01 | 0.941 | 0.954 | 0.999 |  |  |  |  |  | 
Nc1c[n+](N2CCOCC2)no1.[Cl-] | 49.4 | 49.9 | 48.7 | 6.05 | 6.1 | 9.31 | 10.9 | 12.9 | 15.2 | 0.896 | 0.814 | 0.739 | 0.578 | 0.503 | 0.489 |  |  |  |  |  | 
